According to patent US8951963B2, “Active cores of peptide triazole HIV-1 entry inhibitors” (priority 2009, dated 2015):
*1 amine or outer side, *2 acyl side, *3 side chain or, on linkers, in order; H or OH if unused. Where a SMILES comes first, the peptide text is derived from it. [ ]: non-standard residue; d: D form. X1 = O=C([C@@H]1C[C@H](n2cc([C]34[CH]5[CH]6[CH]7[CH]3[Fe]6754389%10[CH]4[CH]3[CH]8[CH]9[CH]4%10)nn2)CN1[*:1])[*:2]; Cit = NC(=O)NCCC[C@H](N)C(=O)O

B1: Cyanovirin-N: 11 kD protein originally isolated from the cyanobacteria Nostoc ellipsosporum; binds gp120 (protein, listed as Nostoc ellipsosporum)
chain: LGKFSQTCYNSAIQGSVLTSTCERTNGGYNTSSIDLNSVIENVDGSLKWQPSNFIETCRNTQLAGSSELAAECKTRAQQFVSTKINLDDHIANIDGTLKYE
modifications: DISULFID (8)..(22); DISULFID (58)..(73)

Tests used:
[1] = tested on: HIV-1 strain BaL; conditions: P4-CCR5 cells; Gopi et al., 2008; read-out: IC50, inhibition of infection by HIV-1 BaL; cited from earlier work
[2] = target: T1, HIV-1 YU2 gp120 (Human immunodeficiency virus type 1 group M subtype B, UniProt P35961); format: binding; conditions: for dissociation rate constant (koff): Table 11, dissociation rate; for Ka: Table 11, association rate
T1 construct: made in house; host or cells: Drosophila S2 cells
Description: Surface plasmon resonance (SPR) interaction analyses were performed on a Biacore® 3000 optical biosensor (GE). All experiments were carried out at 25° C. using standard PBS, pH 7.4, with 0.005% Surfactant P20.
Regeneration of the surface was achieved by a one 5-second pulse of 10 mM glycine, pH 1.5.
SPR data analyses were performed using BIAEvaluation 4.0 software (GE). […] Experimental data were fitted to a simple 1:1 binding model with a parameter included for mass transport. […] The inhibition curve was converted into a calibration curve by the use of a fitting function. The fitting was done using the 4-parameter equation in BIAevaluation software: […]

[3] = target: T2, gp120 (Human immunodeficiency virus type 1 group M subtype B, UniProt P35961); format: binding, HIV-1; conditions: ITC, 25° C., PBS pH 7.4
T2 construct: made in house; host or cells: Drosophila S2 cells
Description: FIGS. 14A-14D are a series of graphs of calorimetric titration data of gp120 with various peptides. […] Data was obtained as 25° C. in PBS, pH 7.4. Experiments in FIGS. 14A and 14B were carried out using a VP-ITC, where 2 μM gp120 in the calorimetric cell (˜1.4 mL) was titrated with 10 μL aliquots of peptide at concentration of 30 μM.
Isothermal titration calorimetric experiments were performed using high-precision calorimetric systems of model VP-ITC or ITC20 from MicroCal Inc. The titrations were performed by stepwise addition of peptide to gp120 contained in the calorimetric cell at a constant temperature of 25° C. […] For the experiments carried out in the VP-ITC the concentration of gp120 was about 2 μM and the syringe contained the peptide at a concentration about 30 μM. For the experiment carried out using ITC20 gp120 was prepared at about 4 μM and the peptide at 50-100 μM. The solutions contained within the calorimetric cells and injector syringes were prepared in PBS, pH 7.4 and thoroughly degassed to avoid bubble formation in the calorimetric cell. The heat evolved upon each injection of the peptide solution was obtained from the integral of the calorimetric signal. The heat associated with binding of a ligand to the protein in the cell was obtained by subtracting the heat of dilution from the heat of reaction.

[4] = tested on: HIV-1 strain BaL; test: Combination of HNG-156 and cyanovirin-N, HIV-1 BaL infection of P4-CCR5 cells; format: cell-based; conditions: agent alone

Row | Molecule | dissociation rate constant (koff) [2] | also measured
1 | 12-mer peptide RINNIPWSEAMM (SEQ ID NO. 16) from phage-display library [Conjugate 12p1, reference compound] | – | IC50 [1]: 48 µM
2 | CC[C@H](C)[C@H](NC(=O)[C@@H](N)CCCNC(=N)N)C(=O)N[C@@H](CC(N)=O)C(=O)N[C@@H](CC(N)=O)C(=O)N[C@H](C(=O)N1C[C@@H](n2cc([C]34[CH]5[CH]6[CH]7[CH]3[Fe]6754389%10[CH]4[CH]3[CH]8[CH]9[CH]4%10)nn2)C[C@H]1C(=O)N[C@@H](Cc1c[nH]c2ccccc12)C(=O)N[C@@H](CO)C(N)=O)[C@@H](C)CC (some centres unmarked) [UM11] (H-RINNI[X1]WS-NH2; N-terminus and C-terminus assumed) | 2.1E−02 ± 0.6 1/S | –
3 | CC[C@H](C)[C@H](N)C(=O)N[C@@H](CC(N)=O)C(=O)N[C@@H](CC(N)=O)C(=O)N[C@H](C(=O)N1C[C@@H](n2cc([C]34[CH]5[CH]6[CH]7[CH]3[Fe]6754389%10[CH]4[CH]3[CH]8[CH]9[CH]4%10)nn2)C[C@H]1C(=O)N[C@@H](Cc1c[nH]c2ccccc12)C(N)=O)[C@@H](C)CC (some centres unmarked) [UM15] (H-INNI[X1]W-NH2) | 3.3E−03 ± 0.3 1/S | ΔH [3]: -16.6 kcal/mol; −TΔS [3]: +6.6 kcal/mol
4 | CC[C@H](C)[C@H](NC(=O)[C@@H](N)CCCNC(=N)N)C(=O)N[C@@H](CC(N)=O)C(=O)N[C@@H](CC(N)=O)C(=O)N[C@H](C(=O)N1C[C@@H](n2cc([C]34[CH]5[CH]6[CH]7[CH]3[Fe]6754389%10[CH]4[CH]3[CH]8[CH]9[CH]4%10)nn2)C[C@H]1C(N)=O)[C@@H](C)CC (some centres unmarked) [UM16] (H-RINNI[X1]-NH2; N-terminus assumed) | Not detectable | Ka [2]: Not detectable
5 | CC[C@H](C)[C@H](N)C(=O)N[C@@H](CC(N)=O)C(=O)N[C@@H](CC(N)=O)C(=O)N[C@H](C(=O)N1C[C@@H](n2cc([C]34[CH]5[CH]6[CH]7[CH]3[Fe]6754389%10[CH]4[CH]3[CH]8[CH]9[CH]4%10)nn2)C[C@H]1C(=O)N[C@@H](Cc1c[nH]c2ccccc12)C(=O)N[C@@H](CO)C(N)=O)[C@@H](C)CC (some centres unmarked) [UM21] (H-INNI[X1]WS-NH2; N-terminus and C-terminus assumed) | 1.4E−03 ± 0.5 1/S | –
6 | CC[C@H](C)[C@H](NC(=O)[C@H](CC(N)=O)NC(=O)[C@H](CC(N)=O)NC(=O)[C@@H](N)CCCNC(=N)N)C(=O)N1C[C@@H](n2cc([C]34[CH]5[CH]6[CH]7[CH]3[Fe]6754389%10[CH]4[CH]3[CH]8[CH]9[CH]4%10)nn2)C[C@H]1C(=O)N[C@@H](Cc1c[nH]c2ccccc12)C(=O)N[C@@H](CO)C(N)=O (some centres unmarked) [UM22] (H-RNNI[X1]WS-NH2; N-terminus and C-terminus assumed) | 6.8E−03 ± 0.4 1/S | –
7 | CC[C@H](C)[C@H](NC(=O)[C@H](CC(N)=O)NC(=O)[C@H](CC(N)=O)NC(=O)[C@@H](N)CCC(=O)O)C(=O)N1C[C@@H](n2cc([C]34[CH]5[CH]6[CH]7[CH]3[Fe]6754389%10[CH]4[CH]3[CH]8[CH]9[CH]4%10)nn2)C[C@H]1C(=O)N[C@@H](Cc1c[nH]c2ccccc12)C(=O)N[C@@H](CO)C(N)=O (some centres unmarked) [UM23] (H-ENNI[X1]WS-NH2; N-terminus and C-terminus assumed) | 3.4E−03 ± 0.2 1/S | –
8 | CC[C@H](C)[C@H](NC(=O)[C@H](CC(N)=O)NC(=O)[C@H](CC(N)=O)NC(=O)[C@@H](N)CCCNC(N)=O)C(=O)N1C[C@@H](n2cc([C]34[CH]5[CH]6[CH]7[CH]3[Fe]6754389%10[CH]4[CH]3[CH]8[CH]9[CH]4%10)nn2)C[C@H]1C(=O)N[C@H](Cc1c[nH]c2ccccc12)C(=O)N[C@@H](CO)C(N)=O (some centres unmarked) [UM24-DW] (H-[Cit]NNI[X1][dW]S-NH2; N-terminus assumed) | Not detectable | Ka [2]: Not detectable
9 | CC[C@H](C)[C@H](NC(=O)[C@H](CC(N)=O)NC(=O)[C@H](CC(N)=O)NC(=O)[C@@H](N)CCCCN)C(=O)N1C[C@@H](n2cc([C]34[CH]5[CH]6[CH]7[CH]3[Fe]6754389%10[CH]4[CH]3[CH]8[CH]9[CH]4%10)nn2)C[C@H]1C(=O)N[C@@H](Cc1c[nH]c2ccccc12)C(=O)N[C@@H](CO)C(N)=O (some centres unmarked) [UM27] (H-KNNI[X1]WS-NH2) | 8.8E−03 ± 2.1 1/S | –
10 | CC[C@H](C)[C@H](NC(=O)[C@H](CC(N)=O)NC(=O)[C@H](CC(N)=O)NC(=O)[C@@H](N)Cc1ccccc1)C(=O)N1C[C@@H](n2cc([C]34[CH]5[CH]6[CH]7[CH]3[Fe]6754389%10[CH]4[CH]3[CH]8[CH]9[CH]4%10)nn2)C[C@H]1C(=O)N[C@@H](Cc1c[nH]c2ccccc12)C(=O)N[C@@H](CO)C(N)=O (some centres unmarked) [UM28] (H-FNNI[X1]WS-NH2) | 4.3E−03 ± 0.8 1/S | –
11 | CC[C@H](C)[C@H](NC(=O)[C@H](CC(N)=O)NC(=O)[C@@H](N)CC(N)=O)C(=O)N1C[C@@H](n2cc([C]34[CH]5[CH]6[CH]7[CH]3[Fe]6754389%10[CH]4[CH]3[CH]8[CH]9[CH]4%10)nn2)C[C@H]1C(=O)N[C@@H](Cc1c[nH]c2ccccc12)C(=O)N[C@@H](CO)C(N)=O (some centres unmarked) [UM31] (H-NNI[X1]WS-NH2) | 7.8E−03 ± 1.1 1/S | ΔH [3]: -13.8 kcal/mol; −TΔS [3]: +4.1 kcal/mol
12 | CC[C@H](C)[C@H](NC(=O)[C@H](CC(N)=O)NC(=O)[C@@H](N)CCCNC(=N)N)C(=O)N1C[C@@H](n2cc([C]34[CH]5[CH]6[CH]7[CH]3[Fe]6754389%10[CH]4[CH]3[CH]8[CH]9[CH]4%10)nn2)C[C@H]1C(=O)N[C@@H](Cc1c[nH]c2ccccc12)C(=O)N[C@@H](CO)C(N)=O (some centres unmarked) [UM32] (H-RNI[X1]WS-NH2) | 3.1E−03 ± 1.5 1/S | –
13 | CC[C@H](C)[C@H](NC(=O)[C@H](CC(N)=O)NC(=O)[C@@H](N)CCC(=O)O)C(=O)N1C[C@@H](n2cc([C]34[CH]5[CH]6[CH]7[CH]3[Fe]6754389%10[CH]4[CH]3[CH]8[CH]9[CH]4%10)nn2)C[C@H]1C(=O)N[C@@H](Cc1c[nH]c2ccccc12)C(=O)N[C@@H](CO)C(N)=O (some centres unmarked) [UM33] (H-ENI[X1]WS-NH2) | 1.8E−03 ± 0.8 1/S | –
14 | CC[C@H](C)[C@H](NC(=O)[C@H](CC(N)=O)NC(=O)[C@@H](N)CCCNC(N)=O)C(=O)N1C[C@@H](n2cc([C]34[CH]5[CH]6[CH]7[CH]3[Fe]6754389%10[CH]4[CH]3[CH]8[CH]9[CH]4%10)nn2)C[C@H]1C(=O)N[C@@H](Cc1c[nH]c2ccccc12)C(=O)N[C@@H](CO)C(N)=O (some centres unmarked) [UM34] (H-[Cit]NI[X1]WS-NH2; N-terminus assumed) | Not detectable | Ka [2]: Not detectable
15 | CC[C@H](C)[C@H](N)C(=O)N[C@@H](CC(N)=O)C(=O)N[C@H](C(=O)N1C[C@@H](n2cc([C]34[CH]5[CH]6[CH]7[CH]3[Fe]6754389%10[CH]4[CH]3[CH]8[CH]9[CH]4%10)nn2)C[C@H]1C(=O)N[C@@H](Cc1c[nH]c2ccccc12)C(=O)N[C@@H](CO)C(N)=O)[C@@H](C)CC (some centres unmarked) [UM35] (H-INI[X1]WS-NH2; N-terminus assumed) | Not detectable | Ka [2]: Not detectable
16 | CC[C@H](C)[C@H](NC(=O)[C@@H](N)CC(N)=O)C(=O)N1C[C@@H](n2cc([C]34[CH]5[CH]6[CH]7[CH]3[Fe]6754389%10[CH]4[CH]3[CH]8[CH]9[CH]4%10)nn2)C[C@H]1C(=O)N[C@@H](Cc1c[nH]c2ccccc12)C(=O)N[C@@H](CO)C(N)=O (some centres unmarked) [UM41] (H-NI[X1]WS-NH2) | Not detectable | Ka [2]: Not detectable; ΔH [3]: -6.1 kcal/mol; −TΔS [3]: -1.6 kcal/mol
17 | B1 | – | Viral infectivity inhibition IC50 [4]: 0.026 microgram/milliliter; EC50 Dm ([4]; dose at which 50% neutralization occurs): 0.045 µg/mL
